Laboratory results from patent US20020090352A1, “Compositions and methods for use in modulating immune system function” (priority 2000, published 2002).
Peptide text beside a SMILES is read from it. * marks the point of attachment. Cbz = O=C(OCc1ccccc1)*; CH2F = FC*

Columns and labels:
[1] = system: immature LC (Langerhans cells); assay: Apoptosis of immature LC, flow cytometry of PI stained nuclei (sub 2N particles) / annexin V; format: cell-based, human; details: for percentage of apoptotic (<2N) particles: Cmpd. II 1 μM, Cmpd. VIII 1 μM, Z-Vad 50 μM, TNFα 10 ng/ml, CD40L coculture
[2] = system: immature LC (Langerhans cells); assay: Survival of immature LC, viable cell count with trypan blue exclusion; details: 1000 nM tRA; Compound II 1000 nM, Z-Vad-fmk 50 nM

COC(=O)C[C@H](NC(=O)[C@H](C)NC(=O)[C@@H](NC(=O)OCc1ccccc1)C(C)C)C(=O)CF [Z-Vad-fmk, reference compound] (Cbz-Val-Ala-Asp(OMe)-CH2F)
percentage of apoptotic (<2N) particles ([1]; agent + Cmpd. I 1 μM): 9 ± 7%
percentage of apoptotic (<2N) particles ([1]; agent + Compound I 100 nM + SR11237 100 nM): 11 ± 4%
percentage of apoptotic (<2N) particles ([1]; agent + tRA 1 μM): 9 ± 4%
percentage of apoptotic (<2N) particles ([1]; agent alone (column 0)): ≦5%
inhibition of retinoid-induced apoptosis / cell death of immature LC ([1]; result in words): blocked
inhibition of tRA mortality [2]: > 80%
